Data published in US8642646B2, “Method and composition for treating acne using lignan compounds” (New Tree Industry Co., Ltd., priority 2004, dated 2014).
Values after ≈ are worked out from the molar mass of the structure shown.

Assays:
Propionibacterium acnes [1] = settings: literature values; cited from earlier work
acne-causing bacteria = assay: Thermal stability: antibacterial activity by well diffusion assay after thermal treatment; assay type: cell-based; settings: for Diameter of clear zone on the plate containing macelignan: 0.1% in dimethylsulfoxide
Description: The macelignan compound prepared in Example <1-1> was dissolved in dimethylsulfoxide to a concentration of 0.1%. The sample was thermally treated for 30 minutes at different temperatures of 60° C., 70° C., 80° C., 90° C., 100° C., and 121° C. and measured for antibacterial activity by the well diffusion assay.

Staphylococcus epidermis = assay: Minimum inhibitory concentration (MIC), broth serial dilution; assay type: cell-based; settings: same method, read-out: Minimum inhibitory concentration against Staphylococcus epidermis
Description: (§1) The macelignan compound prepared in Example <1-1> was dissolved in 0.5% methanol, and 1 ml of BHI (Brain Heart Infusion) broth was placed into each of test tubes. 1 ml of 2% macelignan solution was placed only into the first test tube and serially diluted 2-fold. Then, 100 μl of Propionibacterium acnes were added at 2×10^5 CFU/ml to each test tube and cultured at 37° C. for at least 24 hours. […] Using the same method, the minimum inhibitory concentrations against Staphylococcus aureus and Staphylococcus epidermis were also measured and the results are shown in Table 2.

Propionibacterium acnes [2] = assay: as above; assay type: cell-based; settings: Cutibacterium acnes; BHI broth, 37° C., at least 24 hours; read-out: Minimum inhibitory concentration against Propionibacterium acnes
Description: as §1

Staphylococcus aureus = assay: as above; assay type: cell-based; settings: same method, read-out: Minimum inhibitory concentration against Staphylococcus aureus
Description: as §1

acne patients = assay: Clinical test on acne patients, oral administration; assay type: in vivo, human
Description: The macelignan isolated and purified in Example <1-1> was clinically tested for acne treatment. • 30 men and women in their mid-30s, who suffer from acne, were selected as test subjects. The macelignan was administered to the test subjects at 600 mg two times a day for 4 weeks.

Propionibacterium acnes [3] = assay: Growth inhibition of Propionibacterium acnes by viable cell counting; assay type: cell-based; settings: 37° C.
Description: The macelignan compound prepared in Example <1-1> was dissolved in dimethylsulfoxide to concentrations of 0.002%, 0.001% and 0.0005%, respectively. 100 μl of Propionibacterium acnes diluted to 2×10^5 CFU/ml was added to test tubes containing the macelignan solutions and allowed to react at 37° C. for 2 hr, 4 hr, 8 hr, 12 hr, 16 hr, 20 hr, and 24 hr. Each sample was serially diluted 10-fold and subjected to the pour plate method. The plates were cultured in an incubator at 37° C. and measured for viable cell colonies of Propionibacterium acnes.

[4] = oral 600 mg two times a day, 4 weeks

benzalkonium chloride
MIC against Propionibacterium acnes (Propionibacterium acnes [1]): 200˜300 μg/ml

CC1=CCC(O)(C(C)C)CC1 (stereo not drawn) [terpinen-4-ol]
MIC against Propionibacterium acnes (Propionibacterium acnes [1]): 300 to 500 µg/mL

COc1cc(C[C@H](C)[C@H](C)Cc2ccc3c(c2)OCO3)ccc1O [macelignan]
Diameter of clear zone on the plate containing macelignan (acne-causing bacteria; treated 30 minutes at 60° C.): 17 mm | Diameter of clear zone on the plate containing macelignan (acne-causing bacteria; treated 30 minutes at 70° C.): 16 mm | Diameter of clear zone on the plate containing macelignan (acne-causing bacteria; treated 30 minutes at 80° C.): 17 mm | Diameter of clear zone on the plate containing macelignan (acne-causing bacteria; treated 30 minutes at 90° C.): 17 mm | Diameter of clear zone on the plate containing macelignan (acne-causing bacteria; treated 30 minutes at 100° C.): 18 mm | Diameter of clear zone on the plate containing macelignan (acne-causing bacteria; treated 30 minutes at 121° C.): 17 mm | thermal stability (change of antibacterial activity after thermal treatment) (acne-causing bacteria; thermal treatment at 60° C.-121° C.): little or no reduction in antibacterial activity | MIC (Staphylococcus epidermis): 64 µg/mL (≈ 195 µM) | MIC (Propionibacterium acnes [2]): 2 µg/mL (≈ 6.09 µM) | MIC (Staphylococcus aureus): 125 µg/mL (≈ 381 µM) | Comedos, mean number after 4 weeks of administration (acne patients; [4]): 7.94 | Nodules, mean number after 4 weeks of administration (acne patients; [4]): 0.24 | Papules, mean number after 4 weeks of administration (acne patients; [4]): 5.69 | Pustules, mean number after 4 weeks of administration (acne patients; [4]): 2.30 | number of lesions after 4 weeks compared to before administration (acne patients; oral 600 mg two times a day, 4 weeks, p-value<0.05): remarkably reduced | Comedos, mean number before administration (acne patients; oral, before administration): 18.92 | Nodules, mean number before administration (acne patients; oral, before administration): 0.74 | Papules, mean number before administration (acne patients; oral, before administration): 14.47 | Pustules, mean number before administration (acne patients; oral, before administration): 5.92 | time within which the bacteria were almost dead (Propionibacterium acnes [3]; macelignan 0.001% (10 μg/ml)): ≤ 8 h | time within which the bacteria were almost dead (Propionibacterium acnes [3]; macelignan 0.002% (20 μg/ml)): ≤ 2 h

O=C(OOC(=O)c1ccccc1)c1ccccc1 [benzoyl peroxide]
MIC against Propionibacterium acnes (Propionibacterium acnes [1]): 500 to 1000 µg/mL
